According to US5747301A, “D-sorbitol dehydrogenase” (Roche Vitamins Inc., priority 1995, dated 1998):
Counter-ions that a name gives are not always drawn. Like-named read-outs stand apart in the source and are kept apart here.

What was measured:
[1] = biological target: T1, D-sorbitol dehydrogenase (SLDH) (Gluconobacter thailandicus, UniProt Q8KIL1); test: Substrate specificity of the purified D-sorbitol dehydrogenase (DCIP reduction enzyme assay); type: biochemical, Gluconobacter suboxydans IFO 3255; set-up: The SLDH was isolated from the membrane fraction of Gluconobacter suboxydans IFO 3255 (DSM 9715); made in house; host or cells: Gluconobacter suboxydans IFO 3255 (DSM 9715), native source (not recombinant): purified from the solubilized membrane fraction; settings: for activity at 100000 µM: read-out: Relative activity
T1 sequence (Q8KIL1 30-740): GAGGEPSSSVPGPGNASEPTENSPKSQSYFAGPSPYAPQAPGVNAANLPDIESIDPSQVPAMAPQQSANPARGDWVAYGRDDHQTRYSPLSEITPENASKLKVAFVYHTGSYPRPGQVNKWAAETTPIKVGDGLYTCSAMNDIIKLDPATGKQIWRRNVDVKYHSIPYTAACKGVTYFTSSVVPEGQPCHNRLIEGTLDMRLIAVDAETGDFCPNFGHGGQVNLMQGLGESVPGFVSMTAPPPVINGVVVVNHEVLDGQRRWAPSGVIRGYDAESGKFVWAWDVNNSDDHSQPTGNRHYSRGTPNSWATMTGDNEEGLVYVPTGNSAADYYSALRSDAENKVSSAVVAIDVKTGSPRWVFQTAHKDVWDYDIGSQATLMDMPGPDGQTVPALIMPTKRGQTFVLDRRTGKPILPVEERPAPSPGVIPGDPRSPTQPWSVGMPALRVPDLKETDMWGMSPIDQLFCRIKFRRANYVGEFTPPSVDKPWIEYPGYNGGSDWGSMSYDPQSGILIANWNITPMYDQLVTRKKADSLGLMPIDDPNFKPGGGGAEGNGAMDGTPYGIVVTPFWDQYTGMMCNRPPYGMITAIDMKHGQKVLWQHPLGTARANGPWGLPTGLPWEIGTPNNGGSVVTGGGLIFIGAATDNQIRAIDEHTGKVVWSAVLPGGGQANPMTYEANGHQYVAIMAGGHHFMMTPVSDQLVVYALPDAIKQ

[2] = biological target: T1, D-sorbitol dehydrogenase (SLDH); test: Effects of metal ions and inhibitors on the SLDH activity; type: biochemical, Gluconobacter suboxydans IFO 3255; set-up: The SLDH was isolated from the membrane fraction of Gluconobacter suboxydans IFO 3255 (DSM 9715); made in house; host or cells: Gluconobacter suboxydans IFO 3255 (DSM 9715), native source (not recombinant): purified from the solubilized membrane fraction; settings: for effect on SLDH activity: addition of 0.91 mM; for activity at 960 µM / activity at 1890 µM: read-out: Relative activity (%)
[3] = system: membrane-bound D-sorbitol dehydrogenase; settings: Shinagawa et al. enzyme; cited from earlier work
[4] = biological target: T1, D-sorbitol dehydrogenase (SLDH); settings: conversion of D-sorbitol to L-sorbose
[5] = substrate: OC[C@@H](O)[C@@H](O)[C@H](O)[C@@H](O)CO; test: Effects of substrate concentration on reaction rate (Km); type: biochemical, Gluconobacter suboxydans IFO 3255; settings: other: D-sorbitol 0.5 to 80 mM; DCIP as electron acceptor
Description: The velocity of the oxidizing reaction on varying the concentration of D-sorbitol from 0.5 to 80 mM was measured to determine the Km value for D-sorbitol. The apparent Michaelis constant was calculated to be 18 mM with DCIP as an electron acceptor for the reaction.

[6] = substrate solutions 100 mM, percent of the reaction rate obtained with D-sorbitol
[7] = metal 0.91 mM, percentage of the reaction rate without metal compounds
[8] = metal 1.79 mM, percentage of the reaction rate without metal compounds
[9] = inhibitor 0.96 mM, percentage of the reaction rate without inhibitors
[10] = inhibitor 1.89 mM, percentage of the reaction rate without inhibitors

OC[C@@H](O)[C@@H](O)[C@@H](O)CO [D-Adonitol]
activity at 100000 µM [1, 6]: 66.6%

O.O.O.O.O.O.O=S(=O)([O-])[O-].[Ni+2] [NiSO4.6H2 O]
Relative activity (%) [2, 7]: 88% | Relative activity (%) [2, 8]: 108%

[Ca+2].[Cl-].[Cl-] [CaCl2]
Relative activity (%) [2, 7]: 96% | Relative activity (%) [2, 8]: 96%

[Fe+3] [Fe^3+]
effect on SLDH activity [2]: strongly inhibitory

O.O.O.O.O.O.[Cl-].[Cl-].[Mg+2] [MgCl2.6H2 O]
Relative activity (%) [2, 7]: 88% | Relative activity (%) [2, 8]: 92%

CCO [Ethanol]
activity at 100000 µM [1]: 0%

C=C[C@H]1CN2CC[C@H]1C[C@H]2[C@H](O)c1ccnc2ccc(OC)cc12 [Quinine-HCl, quinine hydrochloride]
activity at 960 µM [2, 9]: 79.2% | activity at 1890 µM [2, 10]: 75% | inhibitory by ([2]; inhibitors (Table 7)): 25%

O=S(=O)([O-])[O-].O=S(=O)([O-])[O-].O=S(=O)([O-])[O-].[Fe+3].[Fe+3] [Fe2 (SO4)3.xH2 O]
Relative activity (%) [2, 7]: 0% | Relative activity (%) [2, 8]: 0%

O.O.O.O.O=[N+]([O-])[O-].O=[N+]([O-])[O-].[Ca+2] [Ca(NO3)2.4H2 O]
Relative activity (%) [2, 7]: 96% | Relative activity (%) [2, 8]: 96%

[F-].[Na+] [Sodium fluoride]
Relative activity (%) [2, 9]: 100% | Relative activity (%) [2, 10]: 100%

[Cu+2] [Cu^2+]
effect on SLDH activity [2]: strongly inhibitory

CCN1C(=O)C=CC1=O [N-Ethylmaleimide]
activity at 960 µM [2, 9]: 117% | activity at 1890 µM [2]: 100%

O.O.O.O=[N+]([O-])[O-].O=[N+]([O-])[O-].[Cu+2] [Cu(NO3)2.3H2 O]
Relative activity (%) [2, 7]: 0% | Relative activity (%) [2, 8]: 0%

O=C(CO)[C@@H](O)[C@H](O)[C@@H](O)CO [L-Sorbose]
activity at 100000 µM [1, 6]: 0%

OC[C@@H](O)C(O)[C@H](O)CO [D-Arabitol]
oxidation by the enzyme [3]: did not oxidize | oxidation by SLDH ([1]; substrate solutions 100 mM): highly oxidized | activity at 100000 µM [1, 6]: 175%

[Cl][Ti]([Cl])([Cl])[Cl] [TiCl4]
Relative activity (%) [2, 7]: 96% | Relative activity (%) [2, 8]: 88%

OC[C@@H](O)[C@@H](O)CO [meso-Erythritol]
oxidation by the enzyme [3]: did not oxidize | oxidation by SLDH ([1]; substrate solutions 100 mM): highly oxidized | activity at 100000 µM [1, 6]: 172%

O.O.O.O.[Cl][Mn][Cl] [MnCl2.4H2 O]
Relative activity (%) [2, 7]: 80% | Relative activity (%) [2, 8]: 88%

OC[C@H]1O[C@@](CO)(O[C@H]2O[C@H](CO)[C@@H](O)[C@H](O)[C@H]2O)[C@@H](O)[C@@H]1O [Sucrose]
activity at 100000 µM [1, 6]: 0%

OC[C@@H](O)[C@H](O)[C@@H](O)CO [D-Xylitol]
activity at 100000 µM [1, 6]: 0%

O=C(CO)[C@@H](O)[C@H](O)[C@H](O)CO [D-Fructose]
activity at 100000 µM [1, 6]: 0%

O=S(=O)([O-])[O-].[Cu+2] [CuSO4]
Relative activity (%) [2, 7]: 0% | Relative activity (%) [2, 8]: 0%

OC[C@@H](O)[C@@H](O)[C@H](O)[C@H](O)CO [D-Mannitol]
reaction rate relative to D-sorbitol [3]: 5% | activity at 100000 µM [1]: 49.9%

O.O.O.O.O.O.O.O=[As]([O-])([O-])O.[Na+].[Na+] [Na2 HAsO4.7H2 O]
Relative activity (%) [2, 9]: 116.7% | Relative activity (%) [2, 10]: 120.0%

O.O.O.O.O.O.[Cl-].[Cl-].[Co+2] [CoCl2.6H2 O]
Relative activity (%) [2, 7]: 117% | Relative activity (%) [2, 8]: 108%

OCC(O)CO [Glycerol]
oxidation by SLDH ([1]; substrate solutions 100 mM): highly oxidized | activity at 100000 µM [1, 6]: 117%

O.O.[Cl][Cu][Cl] [CuCl2.2H2 O]
Relative activity (%) [2, 7]: 0% | Relative activity (%) [2, 8]: 0%

OC[C@H]1OC(O)[C@H](O)[C@@H](O)[C@@H]1O (stereo partly drawn) [D-Glucose]
activity at 100000 µM [1]: 0%

O=O [oxygen]
use as electron acceptor [4]: does not utilize oxygen as an electron acceptor

MnSO4.4~6H2 O
Relative activity (%) [2, 7]: 88% | Relative activity (%) [2, 8]: 88%

OC[C@@H](O)[C@@H](O)[C@H](O)[C@@H](O)CO [D-Sorbitol]
activity at 100000 µM [1]: 100% | oxidation by SLDH ([1]; substrate solutions 100 mM): highly oxidized

O=C(O)CI [Monoiodoacetate]
inhibitory by [2]: 75% | activity at 960 µM [2]: 75% | activity at 1890 µM [2]: 25%

O=C(O)CF [Sodium fluoroacetate]
activity at 960 µM [2]: 104% | activity at 1890 µM [2]: 108%

[N-]=[N+]=[N-].[Na+] [NaN3]
Relative activity (%) [2, 9]: 91.7% | Relative activity (%) [2, 10]: 112.5%

O=C(O)CN(CCN(CC(=O)O)CC(=O)O)CC(=O)O [EDTA]
activity at 960 µM [2]: 96.7% | activity at 1890 µM [2]: 100%

[Cl-].[Cl-].[Zn+2] [ZnCl2]
Relative activity (%) [2, 7]: 56% | Relative activity (%) [2, 8]: 32%

CO [Methanol]
activity at 100000 µM [1]: 0%

O.O.[Na+].[Na+].[O]=[Mo](=[O])([O-])[O-] [Na2 MoO4.2H2 O]
Relative activity (%) [2, 7]: 68% | Relative activity (%) [2, 8]: 96%

O.O.O.O.O.O.O.O=S(=O)([O-])[O-].[Zn+2] [ZnSO4.7H2 O]
Relative activity (%) [2, 7]: 44% | Relative activity (%) [2, 8]: 40%

B1: D-sorbitol dehydrogenase (SLDH) (Gluconobacter thailandicus) (protein)
chain: T1 sequence (Q8KIL1 30-740)
notes: The SLDH was isolated from the membrane fraction of Gluconobacter suboxydans IFO 3255 (DSM 9715); made in house; host or cells: Gluconobacter suboxydans IFO 3255 (DSM 9715), native source (not recombinant): purified from the solubilized membrane fraction
Km [5]: 18 mM
